Marks after values point to notes of the source that are not given here.
What was measured:
MLO-Y4 cells = assay: FACS staining for Annexin V/propidium iodide in MLO-Y4 cells; assay type: cell-based, murine; details: CD40L pretreatment 15 min where given, then dexamethasone or TNFα for 6 h
Procedure: (§1) The MLO-Y4 cells were pretreated with CD40L (0.5-1.5 μg/ml) for 15 mins. followed by treatment with either dexamethasone at 10^−6 M (10^−7M in earlier studies), TNFα at 1 ng/ml or etoposide at 50 μM for 6 hrs. The cells were cultured in 2.5% FBS/2.5% CS in α-MEM, 5% CO2, 37° C.
FACS Staining for Annexin V/Propidium Iodide: In early stages of apoptosis the cells lose membrane asymmetry and translocate the membrane phospholipid phosphatidylserine to the outer leaflet of the plasma membrane, where it can be detected by its high affinity binding to annexin V (Rillema, 1998). Annexin V is a calcium-dependent phospholipid-binding protein that has a high affinity for phosphatidylserine. Prolonged apoptosis can cause cell death and these non-viable cells stain positive for vital dye Propidium Iodide (PI) as well as Annexin V. Apoptotic cells stain Annexin V positive and Propidium iodide negative.
The staining protocol includes washing single cell suspension twice with PBS and resuspending in 1×binding buffer (0.1 M HEPES/NaOH, pH 7.4; […]; 25 mM CaCl2) at a concentration of one million cells/ml. The cells are aliquoted (100 μl) in polypropylene tubes, incubated with annexin V FITC (5 μl) and propidium iodide (10 μl) for 15 minutes at 4° C. in the dark, and analyzed by flow cytometry within 1 hour. […]

[1] = tested on: MLO-Y4 cells stably transduced with nuclear GFP; assay: GFP nuclear stain apoptosis assay in MLO-Y4 cells; assay type: cell-based, murine; details: CD40L pretreatment 15 min where given, then dexamethasone, TNFα or etoposide 50 μM for 6 h
Procedure: as §1
GFP Nuclear Stain: Visualization of morphological features of apoptosis in the nucleus of the cells, such as chromatin condensation and nuclear fragmentation, was determined in this assay. During apoptosis the nucleus becomes shrunken and pyknotic as a result of DNA degradation. MLO-Y4 cells were stably transduced with a retroviral vector carrying the green fluorescent protein (GFP) CDNA with a nuclear localization sequence designed to target the GFP to the nucleus (Plotkin et al., 1998). […] At least 500 cells from fields selected by systematic random ampling were examined for each condition (Plotkinn et al., 1999; Jilka et al., 1999).

[2] = tested on: MLO-Y4 osteocytic cell line; assay: Trypan blue exclusion (cell death) in MLO-Y4 cells; assay type: cell-based, murine; details: CD40L pretreatment 15 min where given, then dexamethasone 10^-6 M (10^-7 M earlier), TNFα or etoposide 50 μM for 6 h
Procedure: The MLO-[…][…] (0.5-1.5 μg/ml) for 15 mins. followed by treatment with either dexamethasone at 10^-6 M (10^-7M in earlier studies), TNFα at 1 ng/ml or etoposide at 50 μM for 6 hrs. […] Trypan Blue Exclusion: Staining of cultured cells with vital dyes such as trypan blue is commonly used approach to quantify cell death. This is based on the premise that viable cells with intact membranes will exclude specific dyes such as trypan blue, which can easily be quantified under light microscopy ([…], 1998). The percentage of trypan blue positive cells in each culture condition was used to calculate cell survival. This method is […] for screening multiple samples or treatment conditions, but can underestimate cell death since membrane integrity can be intact until late in apoptosis. Trypan vital dye staining is not specific for apoptosis and will also stain necrotic cells. This was confirmed by additional analysis discussed below. Apoptosis of MLO-Y4 or calvaria cells was quantified by trypan blue staining (Jilka et al., 1998). Nonadherent cells were combined with adherent cells released from the culture dish using trypsin-EDTA, resuspended in medium containing serum, and collected by centrifugation. […] At least 100 cells per condition were counted. Trypan vital dye staining is not specific for apoptosis and will also stain necrotic cells. […]

[3] = approximately 2,000 women randomized; cited from earlier work
[4] = cited from earlier work

SMILES: C[C@@H]1C[C@H]2[C@@H]3CCC4=CC(=O)C=C[C@]4(C)[C@@]3(F)[C@@H](O)C[C@]2(C)[C@@]1(O)C(=O)CO [Dex, dexamethasone]
- Annexin V, percent positive cells (apoptotic) (MLO-Y4 cells): 23.7 ± 1.6%
- GFP, percent positive cells (apoptotic) [1]: 24.0* percent
- Trypan Blue, percent positive cells (dead) [2]: 13.7 ± 1.4%

SMILES: COc1cc([C@@H]2c3cc4c(cc3[C@@H](O[C@@H]3O[C@@H]5CO[C@@H](C)O[C@H]5[C@H](O)[C@H]3O)[C@H]3COC(=O)[C@H]23)OCO4)cc(OC)c1O [Etoposide, etoposide]
- GFP, percent positive cells (apoptotic) [1]: 15.9* percent
- Trypan Blue, percent positive cells (dead) [2]: 15.8 ± 2.0%

SMILES: NCCCC(O)(P(=O)(O)O)P(=O)(O)O [alendronate]
- women with vertebra fractures versus placebo [3]: significantly fewer

SMILES: O=C(c1ccc(OCCN2CCCCC2)cc1)c1c(-c2ccc(O)cc2)sc2cc(O)ccc12 [raloxifene]
- proportion of women reporting hot flashes ([4]; 60 mg raloxifene daily, placebo 22.7%, no significant difference): 26.3%
- endometrial proliferation ([4]; over 600 menopausal women): without inducing endometrial proliferation
